Assay results from PubChem BioAssay (NCI).
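Cells were grown in 96-well plates and exposed to each compound for 48 hours at five concentrations; endpoints were interpolated linearly between bracketing concentrations, or set to the highest concentration if not reached. Abbreviation: GI50, concentration required for 50% inhibition of growth. TGI marks complete inhibition of growth.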

Key:
Assay in all cases: NCI tumour cell line growth inhibition, 48 h
HCT-15 colon = tested on: HCT-15 colon
HT29 colon = tested on: HT29 colon
SK-MEL-28 melanoma = tested on: SK-MEL-28 melanoma
HCT-116 colon = tested on: HCT-116 colon
RXF 393 renal = tested on: RXF 393 renal
KM12 colon = tested on: KM12 colon
SW-620 colon = tested on: SW-620 colon
COLO 205 colon = tested on: COLO 205 colon
PC-3 prostate = tested on: PC-3 prostate
MALME-3M melanoma = tested on: MALME-3M melanoma
MCF7 breast = tested on: MCF7 breast
SR leukemia = tested on: SR leukemia
MDA-MB-435 = tested on: MDA-MB-435
LOX IMVI melanoma = tested on: LOX IMVI melanoma
A498 renal = tested on: A498 renal
OVCAR-5 ovarian = tested on: OVCAR-5 ovarian
NCI-H460 lung = tested on: NCI-H460 lung
SF-295 CNS = tested on: SF-295 CNS
HOP-92 NSCLC = tested on: HOP-92 NSCLC
NCI-H23 lung = tested on: NCI-H23 lung
BT-549 breast = tested on: BT-549 breast
HL-60(TB) leukemia = tested on: HL-60(TB) leukemia
NCI-H226 lung = tested on: NCI-H226 lung
OVCAR-3 ovarian = tested on: OVCAR-3 ovarian
HS 578T breast = tested on: HS 578T breast
TK-10 renal = tested on: TK-10 renal
SK-OV-3 ovarian = tested on: SK-OV-3 ovarian
SF-539 CNS = tested on: SF-539 CNS
M14 melanoma = tested on: M14 melanoma
MOLT-4 leukemia = tested on: MOLT-4 leukemia
OVCAR-8 ovarian = tested on: OVCAR-8 ovarian
SK-MEL-2 melanoma = tested on: SK-MEL-2 melanoma
OVCAR-4 ovarian = tested on: OVCAR-4 ovarian
SK-MEL-5 melanoma = tested on: SK-MEL-5 melanoma
SNB-19 CNS = tested on: SNB-19 CNS
U251 CNS = tested on: U251 CNS
SNB-75 CNS = tested on: SNB-75 CNS
MDA-MB-231 breast = tested on: MDA-MB-231 breast
EKVX NSCLC = tested on: EKVX NSCLC
NCI/ADR-RES ovarian = tested on: NCI/ADR-RES ovarian
CCRF-CEM leukemia = tested on: CCRF-CEM leukemia
T-47D breast = tested on: T-47D breast
UO-31 renal = tested on: UO-31 renal
UACC-257 melanoma = tested on: UACC-257 melanoma
A549 NSCLC = tested on: A549 NSCLC
HOP-62 NSCLC = tested on: HOP-62 NSCLC
SN12C renal = tested on: SN12C renal
CAKI-1 renal = tested on: CAKI-1 renal
K-562 leukemia = tested on: K-562 leukemia
ACHN renal = tested on: ACHN renal
UACC-62 melanoma = tested on: UACC-62 melanoma
HCC-2998 colon = tested on: HCC-2998 colon
SF-268 CNS = tested on: SF-268 CNS
786-0 renal = tested on: 786-0 renal
DU-145 prostate = tested on: DU-145 prostate

`COc1cccc(/C=C/C(=O)c2ccc(Cl)cc2Cl)c1OC` was tested, and the GI50 (HCT-15 colon) was 3.76 µM, the TGI (HCT-15 colon) was 12.9 µM and the GI50 (HT29 colon) was 5.04 µM. It also gave a TGI (HT29 colon) of 17.3 µM, a GI50 (SK-MEL-28 melanoma) of 14.2 µM and a TGI (SK-MEL-28 melanoma) of 27.4 µM. The GI50 (HCT-116 colon) was 2.31 µM, the TGI (HCT-116 colon) was 5.85 µM and the GI50 (RXF 393 renal) was 4.07 µM. The TGI (RXF 393 renal) was 15.8 µM, the GI50 (KM12 colon) was 2.74 µM and the TGI (KM12 colon) was 13.1 µM. It also gave a GI50 (SW-620 colon) of 2.98 µM, a TGI (SW-620 colon) of 9.12 µM and a GI50 (COLO 205 colon) of 5.44 µM. It also gave a TGI (COLO 205 colon) of 17.4 µM, a GI50 (PC-3 prostate) of 4.32 µM and a TGI (PC-3 prostate) of 17.1 µM. For the same molecule, the GI50 (MALME-3M melanoma) was 13.8 µM, the TGI (MALME-3M melanoma) was 28.2 µM and the GI50 (MCF7 breast) was 4.52 µM. For the same molecule, the TGI (MCF7 breast) was 32 µM, the GI50 (SR leukemia) was 2.28 µM and the TGI (SR leukemia) was 9.67 µM. The GI50 (MDA-MB-435) was 5.51 µM, the TGI (MDA-MB-435) was 18.7 µM and the GI50 (LOX IMVI melanoma) was 2.64 µM. It also gave a TGI (LOX IMVI melanoma) of 6.88 µM, a GI50 (A498 renal) of 16.2 µM and a TGI (A498 renal) of 30.5 µM. It also gave a GI50 (OVCAR-5 ovarian) of 17.1 µM, a TGI (OVCAR-5 ovarian) of 30.9 µM and a GI50 (NCI-H460 lung) of 8.37 µM. For the same molecule, the TGI (NCI-H460 lung) was over 100 µM, the GI50 (SF-295 CNS) was 15 µM and the TGI (SF-295 CNS) was 32.5 µM. For the same molecule, the GI50 (HOP-92 NSCLC) was 4.35 µM, the TGI (HOP-92 NSCLC) was 19.5 µM and the GI50 (NCI-H23 lung) was 13.7 µM. The TGI (NCI-H23 lung) was 26.6 µM, the GI50 (BT-549 breast) was 5.93 µM and the TGI (BT-549 breast) was 20.2 µM. For the same molecule, the GI50 (HL-60(TB) leukemia) was 2.4 µM, the TGI (HL-60(TB) leukemia) was 5.85 µM and the GI50 (NCI-H226 lung) was 9.96 µM. For the same molecule, the TGI (NCI-H226 lung) was 29.6 µM, the GI50 (OVCAR-3 ovarian) was 7.38 µM and the TGI (OVCAR-3 ovarian) was 19.7 µM. For the same molecule, the TGI (HS 578T breast) was 39.8 µM, the GI50 (TK-10 renal) was 13.5 µM and the TGI (TK-10 renal) was 27 µM. The GI50 (SK-OV-3 ovarian) was 15.4 µM, the TGI (SK-OV-3 ovarian) was 28.7 µM and the GI50 (SF-539 CNS) was 14.1 µM. For the same molecule, the TGI (SF-539 CNS) was 29 µM, the GI50 (M14 melanoma) was 13.7 µM and the TGI (M14 melanoma) was 26.7 µM. For the same molecule, the GI50 (MOLT-4 leukemia) was 3.04 µM, the TGI (MOLT-4 leukemia) was 12.4 µM and the GI50 (OVCAR-8 ovarian) was 3.73 µM. It also gave a TGI (OVCAR-8 ovarian) of 13.7 µM, a GI50 (SK-MEL-2 melanoma) of 4.58 µM and a TGI (SK-MEL-2 melanoma) of 17.4 µM. The GI50 (OVCAR-4 ovarian) was 11.3 µM, the TGI (OVCAR-4 ovarian) was 34 µM and the GI50 (SK-MEL-5 melanoma) was 13.3 µM. The TGI (SK-MEL-5 melanoma) was 28.1 µM, the GI50 (SNB-19 CNS) was 4.15 µM and the TGI (SNB-19 CNS) was 14.9 µM. For the same molecule, the GI50 (U251 CNS) was 6.19 µM, the TGI (U251 CNS) was 18.7 µM and the GI50 (SNB-75 CNS) was 18 µM. It also gave a TGI (SNB-75 CNS) of 33.8 µM, a GI50 (MDA-MB-231 breast) of 12.3 µM and a TGI (MDA-MB-231 breast) of 27.8 µM. It also gave a GI50 (EKVX NSCLC) of 13.6 µM, a TGI (EKVX NSCLC) of 31.8 µM and a GI50 (NCI/ADR-RES ovarian) of 11.1 µM. It also gave a TGI (NCI/ADR-RES ovarian) of 25.2 µM, a GI50 (CCRF-CEM leukemia) of 2.77 µM and a TGI (CCRF-CEM leukemia) of 26.9 µM. The GI50 (T-47D breast) was 8.59 µM, the TGI (T-47D breast) was 25.5 µM and the GI50 (UO-31 renal) was 3.43 µM. It also gave a TGI (UO-31 renal) of 17.4 µM, a GI50 (UACC-257 melanoma) of 11.2 µM and a TGI (UACC-257 melanoma) of 23.2 µM. For the same molecule, the GI50 (A549 NSCLC) was 10.4 µM, the TGI (A549 NSCLC) was 24.7 µM and the GI50 (HOP-62 NSCLC) was 16.6 µM. For the same molecule, the TGI (HOP-62 NSCLC) was 30.3 µM, the GI50 (SN12C renal) was 5.73 µM and the TGI (SN12C renal) was 19.9 µM. It also gave a GI50 (CAKI-1 renal) of 12.6 µM, a TGI (CAKI-1 renal) of 25.1 µM and a GI50 (K-562 leukemia) of 2.39 µM. For the same molecule, the TGI (K-562 leukemia) was 5.72 µM, the GI50 (ACHN renal) was 14.3 µM and the TGI (ACHN renal) was 28 µM. The GI50 (UACC-62 melanoma) was 10.6 µM, the TGI (UACC-62 melanoma) was 24 µM and the GI50 (HCC-2998 colon) was 14.5 µM. It also gave a TGI (HCC-2998 colon) of 27.7 µM, a GI50 (SF-268 CNS) of 12.9 µM and a TGI (SF-268 CNS) of 41.5 µM. It also gave a GI50 (786-0 renal) of 10.3 µM, a TGI (786-0 renal) of 21.9 µM and a GI50 (DU-145 prostate) of 11.4 µM. For the same molecule, the TGI (DU-145 prostate) was 27.5 µM.
